Laboratory results taken from publication PMC9085577, “Discovery of a Potent and Orally Active Dual GPBAR1/CysLT1R Modulator for the Treatment of Metabolic Fatty Liver Disease” (Frontiers in Pharmacology, 2022).
Values after ≈ are worked out from the molar mass of the structure shown. Read-outs that look alike come from different tables or passages of the source.

What was measured:
[1] = target: T1, human GPBAR1 (Homo sapiens, UniProt Q8TDU6); experiment: GPBAR1 CRE-luciferase reporter transactivation assay in HEK-293T cells; assay type: cell-based; conditions: HEK-293T; compound 10 µM relative to TLCA (10 μM) as 100, CRE transactivation, HEK293T cells; read-out: GPBAR1 Eff (%) maximum efficacy
T1 construct: expressed in transfected cells; host or cells: HEK-293T cells, transient transfection (Fugene HD)
T1 sequence (Q8TDU6 1-330): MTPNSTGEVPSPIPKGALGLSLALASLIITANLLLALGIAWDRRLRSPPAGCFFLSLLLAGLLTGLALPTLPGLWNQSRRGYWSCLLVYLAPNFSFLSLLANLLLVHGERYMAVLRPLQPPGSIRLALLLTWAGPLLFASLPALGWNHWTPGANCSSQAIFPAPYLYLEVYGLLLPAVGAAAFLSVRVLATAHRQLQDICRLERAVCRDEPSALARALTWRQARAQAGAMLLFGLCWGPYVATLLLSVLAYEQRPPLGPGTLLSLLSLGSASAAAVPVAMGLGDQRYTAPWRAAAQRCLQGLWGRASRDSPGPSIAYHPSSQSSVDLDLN
Description: GPBAR1. […] At 18 h post stimulations, cellular lysates were assayed for luciferase and Renilla activities using the Dual-Luciferase Reporter assay system (E1980, Promega Madison WI). Luminescence was measured using Glomax 20/20 luminometer (Promega, Madison WI). Luciferase activities were normalized with Renilla activities.
Agonistic activities of compounds on GPBAR1 were compared to TLCA, which was set as 100%.

[2] = target: T2, Human CysLT1 (LTD4) (Homo sapiens, UniProt Q9Y271); experiment: Human CysLT1 (LTD4) antagonist effect cellular functional assay (Ca2+ fluorescence, Eurofins Cerep-Panlabs); assay type: cell-based; conditions: for IC50: 0.1 nM LTD4
T2 construct: Eurofins Cerep-Panlabs (France), contract assay
T2 sequence (Q9Y271 1-337): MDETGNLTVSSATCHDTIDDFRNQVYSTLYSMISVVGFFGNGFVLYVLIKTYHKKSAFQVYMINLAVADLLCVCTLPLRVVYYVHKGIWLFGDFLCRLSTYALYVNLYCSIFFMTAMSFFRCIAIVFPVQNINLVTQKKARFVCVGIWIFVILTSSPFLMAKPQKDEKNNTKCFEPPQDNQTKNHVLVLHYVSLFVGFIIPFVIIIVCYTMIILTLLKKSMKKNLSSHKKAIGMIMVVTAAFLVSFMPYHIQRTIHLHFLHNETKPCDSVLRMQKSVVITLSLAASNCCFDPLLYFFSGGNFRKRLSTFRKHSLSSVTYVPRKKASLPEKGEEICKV
Description: Human CysLT1 (LTD4) (h) (antagonist effect) Cellular Functional Assay. These assays were performed at Eurofins Cerep-Panlabs (France). The cells were suspended in DMEM buffer (Invitrogen) and then distributed in microplates at a density of 3.104 cells/well. […] Thereafter, the assay plates are positioned in a microplate reader (CellLux, PerkinElmer), which was used for the addition of the test compound or HBSS buffer, then 5 min later, 0.1 nM LTD4 or HBSS buffer (basal control), and measured the changes in fluorescence intensity, which varies proportionally to the free cytosolic Ca^2+-ion concentration.

[3] = design: method as in Fiorillo et al., 2021; conditions: ref Fiorillo et al., 2021; cited from earlier work
[4] = design: method as in Fiorillo et al., 2021; conditions: pH 7.4; ref Fiorillo et al., 2021; cited from earlier work
[5] = design: method as in Fiorillo et al., 2021; conditions: ref Fiorillo et al., 2021; cited from earlier work; remark: listed apart in the source
[6] = design: method as in Fiorillo et al., 2021; conditions: aqueous, pH 7.4; ref Fiorillo et al., 2021; cited from earlier work
[7] = antagonist effect, read-out: CysLT1R IC50

Row | SMILES | Emax [1] | CysLT1R efficacy (percent inhibition of the control response to 0.1 nM LTD4) ([2]; antagonist effect) | IC50 [2, 7] | other results
1 | O=C(O)c1ccc(-c2ccc(OCc3ccc4ccccc4n3)cc2)cc1 [Compound 5, 4'-(quinolin-2-ylmethoxy)-[1,1′-biphenyl]-4-carboxylic acid] | 36.7 ± 3% |  |  | 
2 | OCc1ccc(-c2ccc(OCc3ccc4ccccc4n3)cc2)cc1 [Compound 6, (4'-(quinolin-2-ylmethoxy)-[1,1′-biphenyl]-4-yl)-methanol] | 64.9 ± 13% | 0.8 ± 1.5% |  | 
3 | O=C(O)CCCOc1cccc(OCc2ccc3ccccc3n2)c1 [Compound 11, 4-(3-(quinolin-2-ylmethoxy)phenoxy)-butanoic acid] | 18.3 ± 4.8% | 92.8 ± 2.3% |  | 
4 | O=C(O)CCCCOc1cccc(OCc2ccc3ccccc3n2)c1 [Compound 8] | 12 ± 1.3% | 99.6 ± 2.0% | 900 ± 500 nM | 
5 | CCCCCC(O)c1cccc(OCc2ccc3ccccc3n2)c1 (stereo not drawn) [REV5901, alpha-pentyl-3-[2-quinolinylmethoxy] benzyl alcohol] |  |  |  | Microsomes Clint [3]: 63 μl/min/mg protein; Microsomes t1/2 [3]: 37 min; LogD [4]: 3.1; S9 fraction Clint [5]: 40 μl/min/mg protein; S9 fraction t1/2 [5]: 57 min; IC50 ([2]; CysLT1R IC50, antagonist effect): 2500 ± 1200 nM; Solubility [6]: 39.3 µM (≈ 13.2 µg/mL)
6 | OCCCCCOc1cccc(OCc2ccc3ccccc3n2)c1 [Compound 9, 5-(3-(quinolin-2-ylmethoxy)phenoxy)-pentan-1-ol] | 30.8 ± 7.5% | 106.9 ± 1.6% | 360 ± 580 nM | 
7 | COC(=O)CCCCOc1cccc(OCc2ccc3ccccc3n2)c1 [Compound 7] | 20.5 ± 2.4% | 76 ± 9.6% | 1680 ± 280 nM | 
8 | COC(=O)c1cccc(-c2ccc(OCc3ccc4ccccc4n3)cc2)c1 [Compound 1, Methyl 4'-(quinolin-2-ylmethoxy)-[1,1′-biphenyl]-3-carboxylate] | 56.9 ± 7.8% |  |  | 
9 | OCCCCOc1cccc(OCc2ccc3ccccc3n2)c1 [Compound 12, 4-(3-(quinolin-2-ylmethoxy)phenoxy)-butan-1-ol] | 12.8 ± 3.3% | 108.6 ± 1.8% | 310 ± 240 nM | 
10 | COC(=O)CCCOc1cccc(OCc2ccc3ccccc3n2)c1 [Compound 10, Methyl 4-(3-(quinolin-2-ylmethoxy)phenoxy)-butanoate] | 20.2 ± 4.5% | 92.1 ± 3.4% | 1550 ± 430 nM | 
11 | OCc1cccc(-c2ccc(OCc3ccc4ccccc4n3)cc2)c1 [Compound 3, (4'-(quinolin-2-ylmethoxy)-[1,1′-biphenyl]-3-yl)-methanol] | 2.1 ± 0.06% | 59 ± 3.6% |  | 
12 | COC(=O)c1ccc(-c2ccc(OCc3ccc4ccccc4n3)cc2)cc1 [Compound 4, Methyl 4'-(quinolin-2-ylmethoxy)-[1,1′-biphenyl]-4-carboxylate] | 13.5 ± 1% |  |  | 
